Results from US8673947B2, “Enhanced migraine treatments based on ghrelin mimetics” (Helsinn Therapeutics (U.S.), Inc., priority 2009, dated 2014).
Like-named read-outs stand apart in the source and are kept apart here.

What was measured:
[1] = Imitrex tablets, cited from earlier work
[2] = Pharmacokinetic two period crossover study of oral sumatriptan with or without anamorelin hydrochloride; type: in vivo; conditions: both sexes, human, plasma, 25 mg/dose
Method: The study was a two period crossover study in 22 healthy, normal men and women ages 18-45 years, conducted in open label format. […] Subjects were fasted overnight with a seven day wash out period between periods. […] All samples were analyzed using a validated bioanalytical method (LC-MS-MS).

AUC(0-t) ([2]; plasma sumatriptan, sumatriptan succinate 25 mg oral tablet, alone or with anamorelin HCl 100 mg oral, fasted healthy subjects, N = 22, read-out: AUC 0-30, Mean): 2.53 ng·h/mL
AUC(0-t) ([2]; plasma sumatriptan, sumatriptan succinate 25 mg oral tablet, alone or with anamorelin HCl 100 mg oral, fasted healthy subjects, N = 22, read-out: AUC 0-30, Median): 2.56 ng·h/mL
Cmax ([2]; plasma sumatriptan, sumatriptan succinate 25 mg oral tablet, alone or with anamorelin HCl 100 mg oral, fasted healthy subjects, N = 22, read-out: Cmax, Mean): 20.3 ng/mL
Cmax ([2]; plasma sumatriptan, sumatriptan succinate 25 mg oral tablet, alone or with anamorelin HCl 100 mg oral, fasted healthy subjects, N = 22, read-out: Cmax, Median): 20.4 ng/mL
Tmax ([2]; plasma sumatriptan, sumatriptan succinate 25 mg oral tablet, alone or with anamorelin HCl 100 mg oral, fasted healthy subjects, N = 22, read-out: Tmax, Mean (converted)): 1.12 h
Tmax ([2]; plasma sumatriptan, sumatriptan succinate 25 mg oral tablet, alone or with anamorelin HCl 100 mg oral, fasted healthy subjects, N = 22, read-out: Tmax, Median (converted)): 0.883 h
AUC(0-t) ([2]; read-out: AUC last, Mean): 45.6 ng·h/mL
Structure (SMILES): CNS(=O)(=O)Cc1ccc2[nH]cc(CCN(C)C)c2c1 [Sumatriptan, 1-[3-(2-dimethylaminoethyl)-1H-indol-5-yl]-N-methyl-methanesulfonamide]
time after administration until maximum blood concentrations are reached ([1]; during a migraine attack): 2.5 h
time after administration to reach maximum concentration in the plasma (average) ([1]; healthy adults): 2.0 h
